Columns and labels:
Format in all cases: in vivo
rice (Oryza sativa) = assay: Test B flooded paddy test; details: for Plant response rating, Rice: Flood (flooded paddy test), 13 to 15 days
Procedure, shortened: (§1)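 Post-flood paddy application: compounds are introduced into water 3 cm deep over the soil, reaching plants at the 2-leaf stage. The water level is maintained, and after 13–15 days under greenhouse conditions, response is judged by eye relative to controls, where 100 means complete control.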

[1] = system: barnyardgrass (Echinochloa crus-galli); assay: Test B flooded paddy test; details: for Plant response rating, Barnyardgrass: Flood (flooded paddy test), 13 to 15 days
Procedure, shortened: as §1

[2] = system: ducksalad (Heteranthera limosa); assay: Test B flooded paddy test; details: for Plant response rating, Ducksalad: Flood (flooded paddy test), 13 to 15 days
Procedure, shortened: as §1

[3] = system: umbrella sedge (Cyperus difformis); assay: Test B flooded paddy test; details: for Plant response rating, Sedge, Umbrella: Flood (flooded paddy test), 13 to 15 days
Procedure, shortened: as §1

[4] = system: velvetleaf (Abutilon theophrasti); assay: Test A pre-/postemergence plant response
Procedure, shortened: (§2)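 Injury was scored visually after roughly ten days against untreated controls, 0 = no effect, 100 = complete control. Test chemicals in a surfactant-containing non-phytotoxic solvent were sprayed either onto soil preemergence or onto one- to two-leaf, 2–10 cm plants postemergence.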

[5] = system: barnyardgrass (Echinochloa crus-galli); assay: Test A pre-/postemergence plant response
Procedure, shortened: as §2

corn (Zea mays) = assay: Test A pre-/postemergence plant response
Procedure, shortened: as §2

[6] = system: morningglory (Ipomoea spp.); assay: Test A pre-/postemergence plant response
Procedure, shortened: as §2

[7] = system: large crabgrass (Digitaria sanguinalis); assay: Test A pre-/postemergence plant response
Procedure, shortened: as §2

[8] = system: giant foxtail (Setaria faberii); assay: Test A pre-/postemergence plant response
Procedure, shortened: as §2

[9] = system: pigweed (Amaranthus retroflexus); assay: Test A pre-/postemergence plant response
Procedure, shortened: as §2

[10] = system: wheat (Triticum aestivum); assay: Test A pre-/postemergence plant response
Procedure, shortened: as §2

[11] = 250 g ai/ha, flooded paddy test, visual rating on 0 to 100 scale (0 no effect, 100 complete control) after 13 to 15 days
[12] = 62 g ai/ha, scale of 0 to 100 where 0 is no effect and 100 is complete control
[13] = 125 g ai/ha, scale 0 to 100, 0 is no effect, 100 is complete control
[14] = Flood, 31 g ai/ha, scale 0 to 100 (0 no effect, 100 complete control)
[15] = Postemergence, 125 g ai/ha, 0 to 100 scale where 0 is no effect and 100 is complete control
[16] = Postemergence, 500 g ai/ha, visual injury, 0 to 100 scale (0 no effect, 100 complete control), approx. ten days
[17] = Preemergence, 125 g ai/ha, 0 to 100 scale, 0 = no effect, 100 = complete control
[18] = Preemergence, 500 g ai/ha, 0 to 100 scale, 0 = no effect, 100 = complete control

For `CCCn1c(-c2cccs2)ncc(C(=O)c2cnn(CC)c2O)c1=O` [Compound 221], the “Plant response rating, Flood, Rice” value (rice (Oryza sativa); [11]) was 15, the “Plant response rating, Rice” value (rice (Oryza sativa); [12]) was 0 and the “Plant response rating, Rice” value (rice (Oryza sativa); [13]) was 0. The “Rice plant response rating” value (rice (Oryza sativa); [14]) was 0, the “Plant response rating, Flood, Barnyardgrass” value [1, 11] was 20 and the “Plant response rating, Barnyardgrass” value [1, 12] was 0. For the same compound, the “Plant response rating, Barnyardgrass” value [1, 13] was 0, the “Barnyardgrass plant response rating” value [1, 14] was 0 and the “Plant response rating, Flood, Ducksalad” value [2, 11] was 70. For the same compound, the “Plant response rating, Ducksalad” value [2, 12] was 65, the “Plant response rating, Ducksalad” value [2, 13] was 70 and the “Ducksalad plant response rating” value [2, 14] was 20. For the same compound, the “Plant response rating, Flood, Sedge, Umbrella” value [3, 11] was 75, the “Plant response rating, Sedge, Umbrella” value [3, 12] was 60 and the “Plant response rating, Sedge, Umbrella” value [3, 13] was 75. The “Sedge, Umbrella plant response rating” value [3, 14] was 0, the “Plant response rating, Velvetleaf” value [4, 15] was 80 and the “Velvetleaf plant response rating” value [4, 16] was 80. For the same compound, the “Plant response rating, Velvetleaf” value [4, 17] was 20, the “Plant response rating, Velvetleaf” value [4, 18] was 30 and the “Plant response rating, Barnyardgrass” value [5, 15] was 10. For the same compound, the “Barnyardgrass plant response rating” value [5, 16] was 20, the “Plant response rating, Barnyardgrass” value [5, 17] was 0 and the “Plant response rating, Barnyardgrass” value [5, 18] was 0. The “Plant response rating, Corn” value (corn (Zea mays); [15]) was 0, the “Corn plant response rating” value (corn (Zea mays); [16]) was 20 and the “Plant response rating, Corn” value (corn (Zea mays); [17]) was 0. For the same compound, the “Plant response rating, Corn” value (corn (Zea mays); [18]) was 0, the “Plant response rating, Morningglory” value [6, 15] was 10 and the “Morningglory plant response rating” value [6, 16] was 20. The “Plant response rating, Morningglory” value [6, 17] was 0, the “Plant response rating, Morningglory” value [6, 18] was 0 and the “Plant response rating, Crabgrass, Large” value [7, 15] was 10. The “Crabgrass, Large plant response rating” value [7, 16] was 20, the “Plant response rating, Crabgrass, Large” value [7, 17] was 0 and the “Plant response rating, Crabgrass, Large” value [7, 18] was 10. The “Plant response rating, Foxtail, Giant” value [8, 15] was 0, the “Foxtail, Giant plant response rating” value [8, 16] was 10 and the “Plant response rating, Foxtail, Giant” value [8, 17] was 0. The “Plant response rating, Foxtail, Giant” value [8, 18] was 10, the “Plant response rating, Pigweed” value [9, 15] was 40 and the “Pigweed plant response rating” value [9, 16] was 70. The “Plant response rating, Pigweed” value [9, 17] was 0, the “Plant response rating, Pigweed” value [9, 18] was 60 and the “Plant response rating, Wheat” value [10, 15] was 0. The “Wheat plant response rating” value [10, 16] was 0, the “Plant response rating, Wheat” value [10, 17] was 0 and the “Plant response rating, Wheat” value [10, 18] was 0.
